Patent EP0589039A1, “[…] DERIVATIVE AND PHARMACEUTICAL PREPARATION CONTAINING THE SAME” (Asahi Kasei Kogyo Kabushiki Kaisha, priority 1991, dated 1992)
Where two headings read alike, the source gives them in different places.

Assays:
[1] = test system: human breast cancer cell line MCF-7; experiment: Growth inhibition of human breast cancer cell MCF-7 (Methylene Blue staining); assay type: cell-based; details: read-out: Growth inhibition of MCF-7 (human breast cancer cells) (IC₅₀)
Protocol: (Growth inhibition of human breast cancer cell MCF-7)
Effect of the compound of the present invention on breast cancer were examined using a human breast cancer cell line MCF-7. Predetermined dilutions of each compound of the present invention were added to a 96 well microtiter plate purchased from Falcon, and the cancer cells were inoculated into each well with a inoculum size of 10³ cells per well (10⁴ cells in the case of 100 nM estrogen (E)). The thus prepared plate was supplied with RPMI 1640 medium which has been supplemented with 5% of fetal bovine serum and further with a predetermined amount of estrogen, and incubated at 37°C for 6 days (3 days in the case of 100 nM estrogen) in the presence of 5% CO₂. Thereafter, viable cells were fixed with glutaraldehyde and stained with Methylene Blue to measure absorbance at 665 nm.

[2] = test system: human breast cancer cultured cell line ZR-75-1; experiment: Growth inhibition of human breast cancer cultured cell line ZR-75-1 (Methylene Blue staining); assay type: cell-based; details: 120 h, ZR-75-1, 10⁻⁹ mole of estrogen, 5 days, read-out: IC₅₀
Protocol: Effect of the triphenylalkene derivative of the present invention on breast cancer were examined using a human breast cancer cultured cell line ZR-75-1. Predetermined dilutions of each triphenylalkene derivative of the present invention were added to a 96 well microtiter plate purchased from Falcon, and the cancer cells were inoculated into each well with a inoculum size of 2 x 10³ cells per well. The thus prepared plate was supplied with RPMI 1640 medium which has been supplemented with 10% of fetal bovine serum and further with 10⁻⁹ mole of estrogen, and incubated at 37°C for 5 days in the presence of 5% CO₂. Thereafter, viable cells were fixed with glutaraldehyde, stained with Methylene Blue and then extracted with 0.33 N of hydrochloric acid to measure absorbance at 665 nm. […]

[3] = test system: osteoporosis model rats; experiment: Inhibition of decrease in bone density in ovariectomized osteoporosis model rats; assay type: in vivo, Fisher rats; details: 400 µg/kg orally once a day for 4 months
Protocol: Effect of the compound of the present invention to inhibit decrease in the bone density was evaluated using osteoporosis model rats. […] The remaining 8 rats were subjected to sham operation and used as a control group (Group C). […] After completion of the administration, the left side femur of each rat was excised to measure its volume (V) and dry weight (W) to calculate a bone density (D) based on a formula, D = W/V [formula] . […]

[4] = MCF7, 144 h, 1 nM added amount of E (estrogen), 6 days
[5] = MCF7, 72 h, 100 nM added amount of E (estrogen), 3 days, 10⁴ cells per well
[6] = MCF7, 144 h, 0.1 nM added amount of E (estrogen), 6 days

SMILES	IC50 [1, 4] [nM]	further results
CCC(=C(c1ccc(O)cc1)c1ccc(OCC(O)CN(CC)CC)cc1)c1ccc2c(c1)OCO2 (stereo not drawn) [Compound 2, (E·Z)-1-[4-(3-diethylamino-2-hydroxypropoxy)-phenyl]-1-(4-hydroxyphenyl)-2-(3,4-methylenedioxyphenyl)-1-butene]	60	–
CCC(=C(c1ccc(C=NOC)cc1)c1ccc(OCCN(C)C)cc1)c1ccccc1 [Compound 22, 2-[4-[1-(4-methoxyiminomethylphenyl)-2-phenyl-1-butenyl]phenoxy]-N,N-dimethylamine]	7100	–
CCNCC(O)COc1ccc(C(=C(CC)c2ccc3c(c2)OCO3)c2ccc(O)cc2)cc1 (stereo not drawn) [Compound 11, (E·Z)-1-[4-(3-ethylamino-2-hydroxypropoxy)-phenyl]-1-(4-hydroxyphenyl)-2-(3,4-methylenedioxyphenyl)-1-butene]	50	IC50 [2]: 1600 nM
CCNCC(O)COc1ccc(/C(=C(/CC)c2ccccc2)c2ccccc2)cc1 (stereo not drawn) [Compound 13, (Z)-1-[4-(3-ethylamino-2-hydroxypropoxy)phenyl]-1,2-diphenyl-1-butene]	5400	–
CC/C(=C(\c1ccccc1)c1ccc(OCC(O)CN(C)C)cc1)c1ccc2c(c1)OCO2 (stereo not drawn) [Compound 6, (Z)-1-[4-(3-dimethylamino-2-hydroxypropoxy)-phenyl]-1-phenyl-2-(3,4-methylenedioxyphenyl)-1-butene]	1800	–
CCC(=C(c1ccc(O)cc1)c1ccc(OCC(CN(C)C)OC(C)=O)cc1)c1ccc2c(c1)OCO2 (stereo not drawn) [Compound 16, (E·Z)-1-[4-(3-dimethylamino-2-acetoxypropoxy)-phenyl]-1-(4-hydroxyphenyl)-2-(3,4-methylenedioxyphenyl)-1-butene]	160	–
CC/C(=C(\c1ccccc1)c1ccc(OCC(O)CNC2CCCCC2)cc1)c1ccccc1 (stereo not drawn) [Compound 12, (Z)-1-[4-(3-cyclohexylamino-2-hydroxypropoxy)-phenyl]-1,2-diphenyl-1-butene]	1200	IC50 [2]: 1400 nM
CCC(=C(c1ccc(O)cc1)c1ccc(OCC(O)CNC2CCCCC2)cc1)c1ccc2c(c1)OCO2 (stereo not drawn) [Compound 9, (E·Z)-1-[4-(3-cyclohexylamino-2-hydroxypropoxy)-phenyl]-1-(4-hydroxyphenyl)-2-(3,4-,methylenedioxyphenyl)-1-butene]	460	IC50 [2]: 950 nM
CCC(=C(c1ccc(OCCN(C)C)cc1)c1cccc(C=NO)c1)c1ccccc1 [Compound 23, 2-[4-[1-(3-hydroxyiminomethylphenyl)-2-phenyl-1-butenyl]phenoxy]-N,N-dimethylamine]	6800	–
CCC(=C(c1ccc(O)cc1)c1ccc(OCC(O)CNC)cc1)c1ccc2c(c1)OCO2 (stereo not drawn) [Compound 10, (E·Z)-1-[4-(3-methylamino-2-hydroxypropoxy)-phenyl]-1-(4-hydroxyphenyl)-2-(3,4-,methylenedioxyphenyl)-1-butene]	500	IC50 [2]: 870 nM
CCC(=C(c1ccc(O)cc1)c1ccc(OCC(O)CN(C)CC)cc1)c1ccc2c(c1)OCO2 (stereo not drawn) [Compound 3, (E·Z)-1-[4-(3-ethylmethylamino-2-hydroxypropoxy)phenyl]-1-(4-hydroxyphenyl)-2-(3,4-methylenedioxyphenyl)-1-butene]	100	–
CCC(=C(c1ccc(O)cc1)c1ccc(OCCNC2CCCCC2)cc1)c1ccc2c(c1)OCO2 [Compound 19, (E·Z)-1-[4-(2-cyclohexylaminoethoxy)phenyl]-1-(4-hydroxyphenyl)-2-(3,4-methylenedioxyphenyl)-1-butene]	160	–
CCC(=C(c1ccccc1)c1ccc(OCC(O)CNC2CCCC2)cc1)c1ccccc1 (stereo not drawn) [Compound 40]	–	IC50 [1, 5]: 2700 nM
CCC(=C(c1ccc(C=NO)cc1)c1ccc(OCCN(C)C)cc1)c1ccccc1 [Compound 21, 2-[4-[1-(4-hydroxyiminomethylphenyl)-2-phenyl-1-butenyl]phenoxy]-N,N-dimethylethylamine]	4600	–
CCC(=C(c1ccccc1)c1ccc(OCC(O)CNC2CCCCC2)cc1)c1ccc2c(c1)OCO2 (stereo not drawn) [Compound 38]	–	IC50 [1, 6]: 210 nM
CCC(=C(c1ccc(OCC(CN(C)C)OC(C)=O)cc1)c1ccc(OC(C)=O)cc1)c1ccc2c(c1)OCO2 (stereo not drawn) [Compound 15, (E·Z)-1-[4-(3-dimethylamino-2-acetoxypropoxy)-phenyl]-1-(4-acetoxyphenyl)-2-(3,4-methylenedioxyphenyl)-1-butene]	310	–
CCC(=C(c1ccc(O)cc1)c1ccc(OC(CN(C)C)CN(C)C)cc1)c1ccc2c(c1)OCO2 [Compound 18, (E·Z)-1-[4-(1,3-bisdimethylamino-2-propoxy)-phenyl]-1-(4-hydroxyphenyl)-2-(3,4-methylenedioxyphenyl)-1-butene]	430	–
CCC(=C(c1ccccc1)c1ccc(OCC(O)CN(C)CC)cc1)c1ccc2c(c1)OCO2 (stereo not drawn) [Compound 33]	–	IC50 [1, 6]: 600 nM
CCC(=C(c1ccc(O)cc1)c1ccc(OCC(O)CNC2CCCCC2)cc1)c1ccccc1 (stereo not drawn) [Compound 8, (E·Z)-1-[4-(3-cyclohexylamino-2-hydroxypropoxy)-phenyl]-1-(4-hydroxyphenyl)-2-phenyl-1-butene]	620	IC50 [2]: 1400 nM
CCC(=C(c1ccc(O)cc1)c1ccc(OCC(O)CN(C)C)cc1)c1ccccc1 (stereo not drawn) [Compound 7, (E·Z)-1-[4-(3-dimethylamino-2-hydroxypropoxy)-phenyl]-1-(4-hydroxyphenyl)-2-phenyl-1-butene]	210	–
CCC(=C(c1ccc(O)cc1)c1ccc(OCC(O)CN(C)C)cc1)c1ccc2c(c1)OCO2 (stereo not drawn) [Compound 1, (E·Z)-1-[4-(3-dimethylamino-2-hydroxypropoxy)-phenyl]-1-(4-hydroxyphenyl)-2-(3,4-methylenedioxyphenyl)-1-butene]	–	inhibition of decrease in the bone density caused by the ovariectomy ([3]; compared with Tamoxifen): significantly inhibited decrease in the bone density; Bone density ([3]; left femur, D = W/V, ovariectomized rats): 1.0312
CCC(=C(c1ccccc1)c1ccc(OCC(O)CNC2CCCCC2)cc1)c1ccccc1 (stereo not drawn) [Compound 39]	–	IC50 [1, 5]: 5600 nM
CC/C(=C(\c1ccccc1)c1ccc(OCC(O)CNC(C)C)cc1)c1ccccc1 (stereo not drawn) [Compound 14, (Z)-1-[4-(3-isopropylamino-2-hydroxypropoxy)-phenyl]-1,2-diphenyl-1-butene]	–	IC50 [1, 6]: 410 nM
CCC(=C(c1ccc(OCOC)cc1)c1ccc(OCC(O)CN(C)C)cc1)c1ccc2c(c1)OCO2 (stereo not drawn) [Compound 32]	–	IC50 [1, 5]: 3800 nM
CCC(=C(c1ccc(O)cc1)c1ccc(OCC(O)CN(C)C2CCCCC2)cc1)c1ccc2c(c1)OCO2 (stereo not drawn) [Compound 4, (E·Z)-1-[4-(3-cyclohexylmethylamino-2-hydroxypropoxy)phenyl]-1-(4-hydroxyphenyl)-2-(3,4-methylenedioxyphenyl)-1-butene]	210	–
CCC(=C(c1ccc(O)cc1)c1ccc(OCCN(C)C)cc1)c1ccc2c(c1)OCO2 [Compound 20, (E·Z)-1-[4-(2-dimethylaminoethoxy)phenyl]-1-(4-hydroxyphenyl)-2-(3,4-methylenedioxyphenyl)-1-butene]	190	–
CCC(=C(c1ccccc1)c1ccc(OCC(O)CNC2CCC2)cc1)c1ccccc1 (stereo not drawn) [Compound 41]	–	IC50 [1, 5]: 3400 nM

Now from value to compound, other results behind:

IC50 [1, 4] [nM]	SMILES	further results
3300	CCC(=C(c1ccccc1)c1ccc(OCC(O)CN(C)C)cc1)c1ccccc1 (stereo not drawn) [Compound 30]	–
60	CCC(=C(c1ccc(O)cc1)c1ccc(OC(CN(CC)CC)CN(CC)CC)cc1)c1ccc2c(c1)OCO2 [Compound 37]	–
1900	CCC(=C(c1ccccc1)c1ccc(OC(CN(C)C)CN(C)C)cc1)c1ccccc1 [Compound 35]	–
6300	CCC(=C(c1ccccc1)c1ccc(OCC(O)CN(C)C)cc1)c1ccc2c(c1)OCO2 (stereo not drawn) [Compound 34]	IC50 [1, 5]: 10200 nM
1600	CCC(=C(c1ccccc1)c1ccc(OC(CN(CC)CC)CN(CC)CC)cc1)c1ccccc1 [Compound 36]	–
